Measured values published in US20110071403A1, “FUNCTIONAL NEAR-INFRARED FLUORESCENCE LYMPHATIC MAPPING FOR DIAGNOSING, ACCESSING, MONITORING AND DIRECTING THERAPY OF LYMPHATIC DISORDERS” (BOARD OF REGENTS OF THE UNIVERSITY OF TEXAS SYSTEM, priority 2009, published 2011).
Where a SMILES comes first, the peptide text is derived from it. Bridges are numbered along the chain shown (N, C = ends). Where no end group is shown, it is not given here. The star is where a group is joined. IRDye800CW = CC1(C)C(/C=C/C2=C(Oc3ccc(S(=O)(=O)O)cc3)C(=C/C=C3/N(CCCCS(=O)(=O)O)c4ccc(S(=O)(=O)O)cc4C3(C)C)/CCC2)=[N+](CCCCCC(=O)*)c2ccc(S(=O)(=O)[O-])cc21; IRDye800 = IRDye800 fluorophore

Legend:
[1] = tested on: lymphatics of arms and legs; experiment: first human study: NIR fluorescence lymphatic imaging with intradermal ICG, apparent lymph velocity and propulsion period in control and lymphedema subjects; settings: intradermal ICG up to 400 μg; vitals 2 h, follow-up calls 24 and 48 h
[2] = taken up by the liver and secreted into the bile; cited from earlier work
[3] = optical characterization of NIR imaging agents (spectra, extinction coefficient, quantum yield, lifetime, relative brightness); assay type: physicochemical; settings: for Emission maximum / Excitation maximum: 1 μM solution; for Extinction Coefficient × 10^4: at 785 nm; for Lifetime: frequency domain method, 785/830 (ex/em), ICG as standard
Method: Fluorescence quantum yield was determined by the comparative method of Williams et al. 1983 (Williams, Winfield and Miller. Analyst 109, 1067, 1983) using the quantum yield of ICG (in water) at 785/830 nm (24) as a standard. Lifetime measurements were obtained using the frequency domain-method using ICG as a standard. The IC50 of IRDye800-ABD was determined using a competitive binding assay modified from Dennis et al. 2002 (ibid). Briefly, MAXISORP fluorescent plates (Nunc, Rochester, N.Y.) were coated with mouse serum albumin (Sigma St Louis, Mo.) and incubated overnight at 4 degrees. Plates were washed three times with PBS+0.05% Tween20 (Sigma St. Louis, Mo.) to remove unbound albumin and were then blocked with TBS in casein (Pierce Rockford, Ill.) for 1 hour at 25 degrees. Equal volumes of unlabeled and labeled peptide were combined in centrifuge tubes for five different concentrations (0.05-10 nM) of unlabeled ABD peptide. The resulting peptide solution was then plated on the albumin coated plate, covered, and incubated for 1-2 hours at 37 degrees. The plate was washed with PBS+0.05% Tween20 three times to remove unbound peptide and fluorescence was measured using the ODYSSEY fluorescent plate reader (LI-COR, Lincoln, Nebr.). The average and standard deviation of four IC-50 values were determined.
In addition, Table 1 lists the relative brightness of each compound relative to ICG which was computed by taking the ratio of ((extinction coefficient)×(quantum yield))/((extinction coefficient of ICG)×(quantum yield of ICG)). […] Spectra for ICG and the IRDye800 conjugates were determined.

[4] = tested on: lymphatics of arms and legs; experiment: second human study: NIR fluorescence lymphatic imaging with intradermal ICG pre- and post-MLD, apparent lymph velocity and propulsion period; settings: intradermal ICG up to 400 μg; vitals 2 h, follow-up calls 24 and 48 h
Text: Twelve normal volunteers and 10 subjects clinically diagnosed with Grade I or II unilateral LE participated and provided informed consent. […] The control subjects consisted of 2 males and 10 females, aged 22-59 years. The LE subjects were all female, aged 18-68 years with half experiencing lower extremity LE and the other half upper extremity LE. The injection sites were cleaned with a surgical scrub, followed by alcohol. Immediately after intradermal injection of imaging contrast agent using a 27 gauge needle, NIR fluorescence images were simultaneously acquired from both the LE and contralateral limbs of LE subjects. For control subjects, bilateral arms were imaged simultaneously in 6 subjects, and bilateral legs were imaged in the other 6 subjects. MLD was performed 30 to 60 minutes after the start of imaging followed by another 30 to 60 minutes of imaging. Vital signs were monitored for 2 hours after fluorescent agent administration and follow-up phone calls to assess subjects' condition were made 24 and 48 hours later. […]
The location and movement of lymphatic fluid containing ICG was imaged simultaneously in both limbs using two custom-built fluorescence imaging systems.

[5] = cited from earlier work
[6] = tested on: lymphatic vessels and nodes; experiment: in vivo lymphatic imaging, dose escalation after intradermal injection at base of tail; parameters: species or system C57BL/6 mice
Method: (§1) Animal studies were conducted using shaved 6-7 week old female, C57BL/6 mice (Harlan, Charles River). […] Each mouse was injected intradermally at the base of the tail with 20 μL of 500 uM ICG or 20 μL of 100 μM dye for IRDye800, IRDy800-MSA and IRDye800-ABD in order to assess their performance in vivo. The injections were all made by the same investigator and the site was covered with sterile tape immediately prior to imaging to prevent camera saturation.
Animals were illuminated by a laser diode (100 mA, 80 mW for 785 nm, Sanyo; Richmond, Ind.) with the light source expanded to a circular area approximately 8 cm in diameter. Fluorescence emission was collected using an Electron Multiplying Charge Coupled Device (EMCCD) camera with a holographic notch-plus band-rejection filter (785-nm center wavelength for ICG) and a bandpass filter (830-nm center wavelength for ICG) placed prior to the lens to reject back-scattered and reflected excitation light. Fluorescence images were acquired with an integration time of 200 ms. For registration purposes, “white light” images were taken by removing the filters and acquiring images over 500 ms integration time. Up to 750 fluorescent images and 3 white light images were acquired immediately after injection on the left and right side of each animal. Statistical analyses of differences in fluorescent intensity were assessed by student t-test in which α=0.05. […] Images were processed using V++ software (Digital Optics; Auckland, New Zealand), and data was analyzed to determine in vivo fluorescent intensities in select regions of interest (ROI) using IMAGEJ (NIH, Bethesda, Md.) and MATLAB (The Mathworks). Statistical analysis was conducted using the student t-test with α=0.05.
In viva lymphatic imaging studies utilizing an escalating dose of IC was done.

[7] = tested on: inguinal lymph node; experiment: lymphatic clearance study, fluorescence intensity in inguinal lymph node over time
Method: as §1
Animals were illuminated by a laser diode (100 mA, 80 mW for 785 nm, Sanyo; Richmond, Ind.) with the light source expanded to a circular area approximately 8 cm in diameter. Fluorescence emission was collected using an Electron Multiplying Charge Coupled Device (EMCCD) camera with a holographic notch-plus band-rejection filter (785-nm center wavelength for ICG) and a bandpass filter (830-nm center wavelength for ICG) placed prior to the lens to reject back-scattered and reflected excitation light. Fluorescence images were acquired with an integration time of 200 ms. […] Statistical analyses of differences in fluorescent intensity were assessed by student t-test in which α=0.05. […] Images were processed using V++ software (Digital Optics; Auckland, New Zealand), and data was analyzed to determine in vivo fluorescent intensities in select regions of interest (ROI) using IMAGEJ (NIH, Bethesda, Md.) and MATLAB (The Mathworks). […]

[8] = target: T1, integrin α9β1 on LECs (Homo sapiens, UniProt P05556+Q13797); experiment: fluorescence microscopy of LECs stimulated by VEGF-C; assay type: cell-based
T1 construct: LECS stimulated by VEGF-C to express α9β1 on the extracellular membrane; endogenous in cells; host or cells: lymphatic endothelial cells (LECs) incubated with VEGF-C
Text: FIG. 19: Fluorescence microscopy of LECS stimulated by VEGF-C to express α9β1 on the extracellular membrane as stained by (from left to right, top) by (i) DAPI, a nuclear stain, (ii) IRDye800-[…] (SEQ ID NO: 2), the imaging conjugate that targets α9β1, and (iii) a fluorescently labeled antibody that targets the β1 portion of α9β1.
This targeting approach can be used to detect the process of lymphangiogenesis in animal models in, for example, drug discovery programs focusing on cessation of tumor lymphangiogenesis (such is associated with cancer metastasis), or as a diagnostic to detect the lymphangiogenesis that occurs in metastatic cancer and other tymphovascular disorders. Lymphangiogenesis and the accompanying activation of LECS are known to be stimulated by vascular endothelial growth factor-C (VEGF-C) or hepatic growth factor (HGF). […] When VEGF-C is not present during incubation, α9β1 (over) expression and IRDye800-[…] […] The induced lymphangiogenesis is clearly visualized by the increase in fluorescence 24 hours through […] after the administration of imaging conjugate, IRDye800-[…] […] (SEQ ID NO: 2) was injected intravenously and 24 hours later, NIR fluorescence imaging was conducted to assess increased update associated with those tissues that were the site of Oxazolone application and increased lymphatic vessel densities that are indicative of lymphangiogenesis.

[9] = tested on: lymphangiogenesis (α9β1); experiment: […] plug (with/without HGF) mouse model of lymphangiogenesis, NIR fluorescence imaging; assay type: in vivo; settings: 24 hours after intradermal administration
Method: FIG. 20: NIR fluorescent image of an animal model of lymphangiogenesis (top) with a […] plug impregnated with LEC stimulating factor HGF on the right with a control […] plug without HGF on the left. The animal image (top) is taken 24 hours after administration of IRDye800-[…] (SEQ ID NO: 2) showing agent uptake into the […] plug containing LEC stimulating factor HGF and little or no uptake into the […] plug without HGF. When the […] plugs were removed from the animal and imaged, they were then imaged for the presence of IRDye800-[…] (SEQ ID NO: 2).
This targeting approach can be used to detect the process of lymphangiogenesis in animal models in, for example, drug discovery programs focusing on cessation of tumor lymphangiogenesis (such is associated with cancer metastasis), or as a diagnostic to detect the lymphangiogenesis that occurs in metastatic cancer and other tymphovascular disorders. […] The induced lymphangiogenesis is clearly visualized by the increase in fluorescence 24 hours through […] after the administration of imaging conjugate, IRDye800-[…] […] (SEQ ID NO: 2) was injected intravenously and 24 hours later, NIR fluorescence imaging was conducted to assess increased update associated with those tissues that were the site of Oxazolone application and increased lymphatic vessel densities that are indicative of lymphangiogenesis.

[10] = tested on: lymphangiogenesis (α9β1); experiment: Oxazolone-induced skin inflammation mouse model, NIR fluorescence imaging; assay type: in vivo; settings: 24 hours after intravenous injection, right inflamed vs left untreated side
Method: The NIR imaging was conducted with intradermal administration of ICG (as shown above in human studies) to image both the right and left side lymphatics. […] Increased vessel density, leakiness, and dilated vessels on the inflamed side as compared to the untreated side of the animal as evident from the lymphatic imaging as compared to the left, untreated side.
The right side of the animal which has greater lymphatic density as indicated by ICG imaging (as shown in FIG. 21) is also associated with increased IRDye800-[…] (SEQ ID NO: 2) fluorescence presumably owing to the stimulation of LECS in the process of lymphangiogenesis to produce α9β1 integrin.
This targeting approach can be used to detect the process of lymphangiogenesis in animal models in, for example, drug discovery programs focusing on cessation of tumor lymphangiogenesis (such is associated with cancer metastasis), or as a diagnostic to detect the lymphangiogenesis that occurs in metastatic cancer and other tymphovascular disorders. Lymphangiogenesis and the accompanying activation of LECS are known to be stimulated by vascular endothelial growth factor-C (VEGF-C) or hepatic growth factor (HGF). […] The induced lymphangiogenesis is clearly visualized by the increase in fluorescence 24 hours through […] after the administration of imaging conjugate, IRDye800-[…] […]

[11] = target: mouse serum albumin (Mus musculus, UniProt P07724); settings: read-out: IC-50 of unconjugated ABD peptide for albumin; as reported by Dennis et al., 2002; cited from earlier work
[12] = target: T2, mouse serum albumin (mouse, UniProt P07724 25-608); experiment: competitive binding assay on plates coated with mouse serum albumin; unlabeled ABD peptide at 0.05-10 nM mixed with labeled peptide, fluorescence read-out; mean and SD of four IC-50 values
T2 construct: Bought protein; also called MSA

T1 sequence (Q13797 30-1035): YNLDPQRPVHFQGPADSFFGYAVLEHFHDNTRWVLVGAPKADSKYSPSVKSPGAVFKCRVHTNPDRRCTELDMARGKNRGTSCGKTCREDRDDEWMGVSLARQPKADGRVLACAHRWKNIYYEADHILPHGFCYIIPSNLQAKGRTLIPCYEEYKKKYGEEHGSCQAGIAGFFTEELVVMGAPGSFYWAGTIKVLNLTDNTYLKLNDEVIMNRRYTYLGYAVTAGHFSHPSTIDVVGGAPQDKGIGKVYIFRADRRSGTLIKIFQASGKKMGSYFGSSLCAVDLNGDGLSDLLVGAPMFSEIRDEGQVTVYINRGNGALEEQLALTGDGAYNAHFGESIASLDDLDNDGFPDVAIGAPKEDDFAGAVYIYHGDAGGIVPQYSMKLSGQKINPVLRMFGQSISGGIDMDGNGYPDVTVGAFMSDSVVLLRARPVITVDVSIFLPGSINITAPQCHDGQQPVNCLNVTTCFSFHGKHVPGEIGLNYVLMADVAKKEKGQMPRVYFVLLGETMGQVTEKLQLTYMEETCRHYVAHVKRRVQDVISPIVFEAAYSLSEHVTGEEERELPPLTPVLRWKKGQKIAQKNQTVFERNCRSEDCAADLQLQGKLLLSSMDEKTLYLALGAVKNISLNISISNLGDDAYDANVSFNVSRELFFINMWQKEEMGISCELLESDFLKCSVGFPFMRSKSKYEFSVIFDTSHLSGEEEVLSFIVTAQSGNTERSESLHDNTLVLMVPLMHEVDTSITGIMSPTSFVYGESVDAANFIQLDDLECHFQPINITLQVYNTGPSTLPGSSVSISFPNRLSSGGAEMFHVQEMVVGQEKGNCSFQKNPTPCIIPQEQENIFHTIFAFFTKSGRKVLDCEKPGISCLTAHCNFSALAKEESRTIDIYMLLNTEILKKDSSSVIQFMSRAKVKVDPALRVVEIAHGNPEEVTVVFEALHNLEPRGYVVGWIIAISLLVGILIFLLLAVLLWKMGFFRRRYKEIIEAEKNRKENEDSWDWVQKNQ
T1 sequence (P05556 21-798): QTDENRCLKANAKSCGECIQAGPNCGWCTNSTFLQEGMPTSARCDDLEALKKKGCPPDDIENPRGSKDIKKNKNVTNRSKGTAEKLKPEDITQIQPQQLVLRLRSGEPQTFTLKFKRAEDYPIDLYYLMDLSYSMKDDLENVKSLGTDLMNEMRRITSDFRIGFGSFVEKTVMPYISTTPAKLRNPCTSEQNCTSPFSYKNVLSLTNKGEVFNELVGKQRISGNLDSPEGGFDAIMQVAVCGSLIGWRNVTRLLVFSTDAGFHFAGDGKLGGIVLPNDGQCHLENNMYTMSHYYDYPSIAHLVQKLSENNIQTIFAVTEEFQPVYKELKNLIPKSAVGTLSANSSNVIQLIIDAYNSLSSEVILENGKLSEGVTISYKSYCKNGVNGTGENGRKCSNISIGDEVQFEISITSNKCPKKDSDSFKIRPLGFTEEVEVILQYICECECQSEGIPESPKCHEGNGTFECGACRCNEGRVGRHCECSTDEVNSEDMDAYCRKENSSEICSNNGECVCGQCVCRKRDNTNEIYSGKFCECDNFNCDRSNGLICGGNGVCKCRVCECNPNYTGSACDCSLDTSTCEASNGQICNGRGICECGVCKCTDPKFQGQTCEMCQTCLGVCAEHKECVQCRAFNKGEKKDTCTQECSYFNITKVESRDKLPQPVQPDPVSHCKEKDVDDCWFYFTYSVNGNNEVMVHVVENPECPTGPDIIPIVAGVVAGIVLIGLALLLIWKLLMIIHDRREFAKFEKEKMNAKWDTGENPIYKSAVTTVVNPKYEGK
Sequence of mouse serum albumin (Mus musculus, UniProt P07724) (P07724 25-608): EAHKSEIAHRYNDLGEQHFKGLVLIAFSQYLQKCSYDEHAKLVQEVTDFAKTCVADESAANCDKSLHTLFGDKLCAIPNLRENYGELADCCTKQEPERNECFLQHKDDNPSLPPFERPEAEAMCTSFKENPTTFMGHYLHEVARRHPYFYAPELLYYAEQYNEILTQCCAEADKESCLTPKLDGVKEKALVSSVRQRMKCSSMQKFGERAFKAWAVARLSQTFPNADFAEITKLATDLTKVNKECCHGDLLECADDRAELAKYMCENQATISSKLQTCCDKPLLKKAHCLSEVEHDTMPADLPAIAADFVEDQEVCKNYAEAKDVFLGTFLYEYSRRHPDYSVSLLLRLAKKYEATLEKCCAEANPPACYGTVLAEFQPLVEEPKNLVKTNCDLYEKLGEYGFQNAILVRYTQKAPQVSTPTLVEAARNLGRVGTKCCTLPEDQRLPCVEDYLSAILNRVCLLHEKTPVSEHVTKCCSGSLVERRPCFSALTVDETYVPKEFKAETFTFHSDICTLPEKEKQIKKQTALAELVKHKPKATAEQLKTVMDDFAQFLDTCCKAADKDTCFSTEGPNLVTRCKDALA

For `CC1(C)C(/C=C/C=C/C=C/C=C2\N(CCCCS(=O)(=O)O)c3ccc4ccccc4c3C2(C)C)=[N+](CCCCS(=O)(=O)[O-])c2ccc3ccccc3c21` [ICG, indocyanine green], the “adverse events associated with the drug” value [1] is listed as “No adverse events”, the normal biological half-time [2] is listed as 2-4 min and the Emission maximum [3] is listed as 799. For the same molecule, the Excitation maximum [3] was 785, the “Extinction Coefficient × 10^4” value [3] was 8.60 +/− 0.35 and the Lifetime [3] was 0.59 +/− 0.049. For the same molecule, the “adverse events associated with the imaging agent” value [4] was “No adverse events”, the “Quantum Yield (ICG standard)” value ([5]; ICG in water at 785/830 nm, used as standard) was 0.016 and the maximal absorption ([5]; background statement) was 780 nm. The “concentration sufficient to clearly depict lymphatic architecture in vivo” value ([6]; 20 μL intradermal at base of tail, mice) was 500 µM, the “appearance of lymphatic vasculature” value ([6]; ICG at 500 μM) was “brighter and more prominent” and the “appearance of lymphatic vessels and nodes” value ([6]; ICG at 20 and 100 uM) was “dim and difficult to discern”.

With `CC[C@H](C)[C@H](NC(=O)[C@H](CC(C)C)NC(=O)[C@H](CCCNC(=N)N)NC(=O)CCCCCN1C(=CC=C2CCCC(C=CC3=[N+](CCCCS(=O)(=O)[O-])c4ccc(S(=O)(=O)O)cc4C3(C)C)=C2Oc2ccc(S(=O)(=O)O)cc2)C(C)(C)c2cc(S(=O)(=O)O)ccc21)C(=O)N[C@@H](CCC(=O)O)C(=O)N[C@@H](CC(=O)O)C(=O)N[C@H](C(=O)N[C@H]1CSSC[C@@H](C(=O)N[C@@H](CC(C)C)C(=O)N[C@@H](Cc2c[nH]c3ccccc23)C(=O)N[C@@H](CCC(=O)O)C(=O)N[C@@H](CC(=O)O)C(=O)N[C@@H](CC(=O)O)C(=O)O)NC(=O)CNC(=O)[C@H](Cc2c[nH]c3ccccc23)NC(=O)[C@H](CCCNC(=N)N)NC(=O)[C@@H]2CCCN2C(=O)[C@H](CC(C)C)NC1=O)[C@@H](C)CC` [IRDye800-ABD] (IRDye800CW-RLIEDICLPRWGCLWEDD-OH; disulfide 7-13; N-terminus and C-terminus assumed) the “lymphatic clearance from inguinal lymph node” value ([7]; 0.5 to 50 min after injection) was “slowed clearance”, the “fluorescence intensity in inguinal node, initially” value ([7]; initial time after intradermal injection) was “started out with a lower intensity” and the Emission maximum [3] was 803. The Excitation maximum [3] was 780, the “Intensity relative to ICG” value ([3]; (extinction coefficient × quantum yield) ratio to ICG) was 25.9 and the “Quantum Yield” value ([3]; at 785/830 (ex/em), comparative method with ICG as standard) was 0.0647 +/− 0.0007. For the same molecule, the “Extinction Coefficient × 10^4” value [3] was 54.836 +/− 0.25 and the Lifetime [3] was 0.92 +/− 0.057.

With “IRDye800-GGGPLAEIDGIELTY: IRDye800 conjugated to tenascin C derived integrin α9β1 binding peptide GGGPLAEIDGIELTY (SEQ ID NO: 2)” the “binding to LECs incubated in VEGF-C” value ([8]; VEGF-C for 30 minutes, co-stain with antibody to β1) was “co-localized with the antibody to β1”, the “binding to LECs without VEGF-C” value ([8]; VEGF-C not present during incubation) was “not seen” and the “fluorescence of control MATRIGEL plug with no HGF” value [9] was “did not show appreciable fluorescence”. The “fluorescence of resected MATRIGEL plug with HGF” value [9] was “showed fluorescence” and the “fluorescence in region of Oxazolone skin inflammation” value [10] was “increased fluorescence”.

For RLIEDICLPRWGCLWEDD [ABD peptide], the IC50 [11] is given as 5 nM.

B1: IRDye800-ABD (albumin binding domain peptide RLIEDICLPRWGCLWEDD conjugated to IRDye800CW) (peptide)
peptide: RLIEDICLPRWGCLWEDD
modifications: cysteine pairing not given here; also: IRDye800CW label attached via NHS ester, site not given here
notes: Made by adding a 1.75 times molar excess of IRDye800CW to the ABD peptide, then HPLC purified; also called IRDye800-ABD conjugate; ABD-IRDye800 conjugate
B1 gave an IC50 [12] of 1.19 nM.
